Tested on: K98450-129-R-PDC complex spheroid growth, percent test/control
Assay: Anticancer human tumor K98450-129-R-PDC patient-derived colon adenocarcinoma cell line growth inhibition [RAS]
Conditions: for IC50: curve of first compound; for viability, T/C: stronger effect = lower value
Method in brief: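 Agents were tested in combination matrices in half-log decrements from a top concentration at or near clinical Cmax (10 microM if undetermined). Targets were multi-cell spheroids of tumour lines plus HUVEC and MSC stromal cells.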

[1] = second compound 0.00316 µM, first compound 0.000949 µM
[2] = second compound 0.00316 µM, first compound 0.003 µM
[3] = second compound 0.00316 µM, first compound 0.00949 µM
[4] = second compound 0.00316 µM, first compound 0.03 µM
[5] = second compound 0.00316 µM, first compound 0.0949 µM
[6] = second compound 0.00316 µM, first compound 0.3 µM
[7] = second compound 0.01 µM, first compound 0.000949 µM
[8] = second compound 0.01 µM, first compound 0.003 µM
[9] = second compound 0.01 µM, first compound 0.00949 µM
[10] = second compound 0.01 µM, first compound 0.03 µM
[11] = second compound 0.01 µM, first compound 0.0949 µM
[12] = second compound 0.01 µM, first compound 0.3 µM
[13] = second compound 0.0316 µM, first compound 0.000949 µM
[14] = second compound 0.0316 µM, first compound 0.003 µM
[15] = second compound 0.0316 µM, first compound 0.00949 µM
[16] = second compound 0.0316 µM, first compound 0.03 µM
[17] = second compound 0.0316 µM, first compound 0.0949 µM
[18] = second compound 0.0316 µM, first compound 0.3 µM
[19] = second compound 0.1 µM, first compound 0.000949 µM
[20] = second compound 0.1 µM, first compound 0.003 µM
[21] = second compound 0.1 µM, first compound 0.00949 µM
[22] = second compound 0.1 µM, first compound 0.03 µM
[23] = second compound 0.1 µM, first compound 0.0949 µM
[24] = second compound 0.1 µM, first compound 0.3 µM
[25] = second compound 0.316 µM, first compound 0.000949 µM
[26] = second compound 0.316 µM, first compound 0.003 µM
[27] = second compound 0.316 µM, first compound 0.00949 µM
[28] = second compound 0.316 µM, first compound 0.03 µM
[29] = second compound 0.316 µM, first compound 0.0949 µM
[30] = second compound 0.316 µM, first compound 0.3 µM
[31] = second compound 1 µM, first compound 0.000949 µM
[32] = second compound 1 µM, first compound 0.003 µM
[33] = second compound 1 µM, first compound 0.00949 µM
[34] = second compound 1 µM, first compound 0.03 µM
[35] = second compound 1 µM, first compound 0.0949 µM
[36] = second compound 1 µM, first compound 0.3 µM
[37] = second compound 0.000949 µM, first compound 0.00316 µM
[38] = second compound 0.000949 µM, first compound 0.01 µM
[39] = second compound 0.000949 µM, first compound 0.0316 µM
[40] = second compound 0.000949 µM, first compound 0.1 µM
[41] = second compound 0.000949 µM, first compound 0.316 µM
[42] = second compound 0.000949 µM, first compound 1 µM
[43] = second compound 0.003 µM, first compound 0.00316 µM
[44] = second compound 0.003 µM, first compound 0.01 µM
[45] = second compound 0.003 µM, first compound 0.0316 µM
[46] = second compound 0.003 µM, first compound 0.1 µM
[47] = second compound 0.003 µM, first compound 0.316 µM
[48] = second compound 0.003 µM, first compound 1 µM
[49] = second compound 0.00949 µM, first compound 0.00316 µM
[50] = second compound 0.00949 µM, first compound 0.01 µM
[51] = second compound 0.00949 µM, first compound 0.0316 µM
[52] = second compound 0.00949 µM, first compound 0.1 µM
[53] = second compound 0.00949 µM, first compound 0.316 µM
[54] = second compound 0.00949 µM, first compound 1 µM
[55] = second compound 0.03 µM, first compound 0.00316 µM
[56] = second compound 0.03 µM, first compound 0.01 µM
[57] = second compound 0.03 µM, first compound 0.0316 µM
[58] = second compound 0.03 µM, first compound 0.1 µM
[59] = second compound 0.03 µM, first compound 0.316 µM
[60] = second compound 0.03 µM, first compound 1 µM
[61] = second compound 0.0949 µM, first compound 0.00316 µM
[62] = second compound 0.0949 µM, first compound 0.01 µM
[63] = second compound 0.0949 µM, first compound 0.0316 µM
[64] = second compound 0.0949 µM, first compound 0.1 µM
[65] = second compound 0.0949 µM, first compound 0.316 µM
[66] = second compound 0.0949 µM, first compound 1 µM
[67] = second compound 0.3 µM, first compound 0.00316 µM
[68] = second compound 0.3 µM, first compound 0.01 µM
[69] = second compound 0.3 µM, first compound 0.0316 µM
[70] = second compound 0.3 µM, first compound 0.1 µM
[71] = second compound 0.3 µM, first compound 0.316 µM
[72] = second compound 0.3 µM, first compound 1 µM
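Further: spheroids exposed to agents for seven days before the viability readout.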
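Wherever viability, T/C is given: luminescence used as a proxy for viable cell amount.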

## CC1(C)CCC(Nc2ncc(C(F)(F)F)c(-c3c[nH]c4c(P(C)(C)=O)c(C#N)ccc34)n2)CN1 (stereo not drawn) + C=CC(=O)N1CCN(c2nc(OCC3CCCN3C)nc3c(F)c(-c4nc(N)cc(C)c4C(F)(F)F)c(Cl)cc23)C(C)C1
Second compound 0.00316 µM
  IC50: > 300 nM
Second compound 0.01 µM
  IC50: 270 nM
Second compound 0.0316 µM
  IC50: 166 nM
Second compound 0.1 µM
  IC50: 72.1 nM
Second compound 0.316 µM
  IC50: < 0.949 nM
Second compound 1 µM
  IC50: < 0.949 nM
[1]
  viability, T/C: 99.3%
[2]
  viability, T/C: 100%
[3]
  viability, T/C: 97.8%
[4]
  viability, T/C: 97.6%
[5]
  viability, T/C: 84.2%
[6]
  viability, T/C: 53.7%
[7]
  viability, T/C: 86.4%
[8]
  viability, T/C: 87.3%
[9]
  viability, T/C: 84.2%
[10]
  viability, T/C: 86.2%
[11]
  viability, T/C: 70.6%
[12]
  viability, T/C: 47.5%
[13]
  viability, T/C: 70.5%
[14]
  viability, T/C: 76.3%
[15]
  viability, T/C: 77.3%
[16]
  viability, T/C: 76%
[17]
  viability, T/C: 58.5%
[18]
  viability, T/C: 41.2%
[19]
  viability, T/C: 60.1%
[20]
  viability, T/C: 54.5%
[21]
  viability, T/C: 56.1%
[22]
  viability, T/C: 59%
[23]
  viability, T/C: 46%
[24]
  viability, T/C: 34.5%
[25]
  viability, T/C: 41.1%
[26]
  viability, T/C: 41.3%
[27]
  viability, T/C: 40.6%
[28]
  viability, T/C: 41.3%
[29]
  viability, T/C: 37.8%
[30]
  viability, T/C: 31%
[31]
  viability, T/C: 35.1%
[32]
  viability, T/C: 33.3%
[33]
  viability, T/C: 35.1%
[34]
  viability, T/C: 33.8%
[35]
  viability, T/C: 32.9%
[36]
  viability, T/C: 32.5%

## CCc1c2c(nc3ccc(O)cc13)-c1cc3c(c(=O)n1C2)COC(=O)[C@]3(O)CC + C=CC(=O)N1CCN(c2nc(OCC3CCCN3C)nc3c(F)c(-c4nc(N)cc(C)c4C(F)(F)F)c(Cl)cc23)C(C)C1
Second compound 0.00316 µM
  IC50: 28.1 nM
Second compound 0.01 µM
  IC50: 16.6 nM
Second compound 0.0316 µM
  IC50: 7 nM
Second compound 0.1 µM
  IC50: 3.26 nM
Second compound 0.316 µM
  IC50: < 0.949 nM
Second compound 1 µM
  IC50: < 0.949 nM
[1]
  viability, T/C: 93.5%
[2]
  viability, T/C: 87.7%
[3]
  viability, T/C: 68.1%
[4]
  viability, T/C: 49.7%
[5]
  viability, T/C: 34.1%
[6]
  viability, T/C: 27.6%
[7]
  viability, T/C: 86.7%
[8]
  viability, T/C: 76.1%
[9]
  viability, T/C: 60.6%
[10]
  viability, T/C: 39.1%
[11]
  viability, T/C: 29.2%
[12]
  viability, T/C: 23.6%
[13]
  viability, T/C: 74.5%
[14]
  viability, T/C: 63.8%
[15]
  viability, T/C: 46.1%
[16]
  viability, T/C: 24.1%
[17]
  viability, T/C: 20.6%
[18]
  viability, T/C: 18%
[19]
  viability, T/C: 54.6%
[20]
  viability, T/C: 53.3%
[21]
  viability, T/C: 33%
[22]
  viability, T/C: 20.3%
[23]
  viability, T/C: 16.7%
[24]
  viability, T/C: 11.7%
[25]
  viability, T/C: 38.1%
[26]
  viability, T/C: 35.4%
[27]
  viability, T/C: 25.4%
[28]
  viability, T/C: 16.6%
[29]
  viability, T/C: 15%
[30]
  viability, T/C: 9.83%
[31]
  viability, T/C: 31.7%
[32]
  viability, T/C: 30.3%
[33]
  viability, T/C: 23.6%
[34]
  viability, T/C: 18.9%
[35]
  viability, T/C: 14.1%
[36]
  viability, T/C: 8.49%

## C=CC(=O)Nc1cc(Nc2nccc(-c3cn(C)c4ccccc34)n2)c(OC)cc1N(C)CCN(C)C + CCn1c(-c2cc(N3CCN(C)CC3)cnc2C(C)OC)c2c3cc(ccc31)-c1csc(n1)CC(NC(=O)C1CC1C)C(=O)N1CCCC(N1)C(=O)OCC(C)(C)C2
Second compound 0.000949 µM
  IC50: 336 nM
Second compound 0.003 µM
  IC50: 209 nM
Second compound 0.00949 µM
  IC50: 89.7 nM
Second compound 0.03 µM
  IC50: < 3.16 nM
Second compound 0.0949 µM
  IC50: < 3.16 nM
Second compound 0.3 µM
  IC50: < 3.16 nM
[37]
  viability, T/C: 91.9%
[38]
  viability, T/C: 89.4%
[39]
  viability, T/C: 94.1%
[40]
  viability, T/C: 73.6%
[41]
  viability, T/C: 52.8%
[42]
  viability, T/C: 22.7%
[43]
  viability, T/C: 93%
[44]
  viability, T/C: 92%
[45]
  viability, T/C: 72.8%
[46]
  viability, T/C: 66.8%
[47]
  viability, T/C: 41.8%
[48]
  viability, T/C: 13.6%
[49]
  viability, T/C: 74.9%
[50]
  viability, T/C: 65.2%
[51]
  viability, T/C: 65.6%
[52]
  viability, T/C: 49%
[53]
  viability, T/C: 15.2%
[54]
  viability, T/C: 8.83%
[55]
  viability, T/C: 50.5%
[56]
  viability, T/C: 49%
[57]
  viability, T/C: 48.8%
[58]
  viability, T/C: 18.7%
[59]
  viability, T/C: 10.5%
[60]
  viability, T/C: 7.69%
[61]
  viability, T/C: 21%
[62]
  viability, T/C: 18.5%
[63]
  viability, T/C: 14.1%
[64]
  viability, T/C: 10.6%
[65]
  viability, T/C: 8.27%
[66]
  viability, T/C: 7.06%
[67]
  viability, T/C: 12.9%
[68]
  viability, T/C: 11.8%
[69]
  viability, T/C: 11.4%
[70]
  viability, T/C: 8.91%
[71]
  viability, T/C: 7.33%
[72]
  viability, T/C: 7.02%

## O=C(c1ccc(F)c(F)c1Nc1ccc(I)cc1F)N1CC(O)([C@@H]2CCCCN2)C1 + CCn1c(-c2cc(N3CCN(C)CC3)cnc2C(C)OC)c2c3cc(ccc31)-c1csc(n1)CC(NC(=O)C1CC1C)C(=O)N1CCCC(N1)C(=O)OCC(C)(C)C2
Second compound 0.000949 µM
  IC50: 118 nM
Second compound 0.003 µM
  IC50: 64.2 nM
Second compound 0.00949 µM
  IC50: 42.2 nM
Second compound 0.03 µM
  IC50: 3.23 nM
Second compound 0.0949 µM
  IC50: < 3.16 nM
Second compound 0.3 µM
  IC50: < 3.16 nM
[37]
  viability, T/C: 94.8%
[38]
  viability, T/C: 92%
[39]
  viability, T/C: 87.4%
[40]
  viability, T/C: 57.3%
[41]
  viability, T/C: 10.2%
[42]
  viability, T/C: 2.95%
[43]
  viability, T/C: 95.7%
[44]
  viability, T/C: 87%
[45]
  viability, T/C: 63.2%
[46]
  viability, T/C: 45.8%
[47]
  viability, T/C: 7.54%
[48]
  viability, T/C: 2.62%
[49]
  viability, T/C: 67.8%
[50]
  viability, T/C: 60.7%
[51]
  viability, T/C: 56%
[52]
  viability, T/C: 31.1%
[53]
  viability, T/C: 3.99%
[54]
  viability, T/C: 2.44%
[55]
  viability, T/C: 51.7%
[56]
  viability, T/C: 45%
[57]
  viability, T/C: 31.1%
[58]
  viability, T/C: 6.53%
[59]
  viability, T/C: 2.64%
[60]
  viability, T/C: 2.51%
[61]
  viability, T/C: 14.9%
[62]
  viability, T/C: 10.1%
[63]
  viability, T/C: 7.08%
[64]
  viability, T/C: 2.95%
[65]
  viability, T/C: 2.96%
[66]
  viability, T/C: 2.57%
[67]
  viability, T/C: 8.48%
[68]
  viability, T/C: 8.02%
[69]
  viability, T/C: 4.92%
[70]
  viability, T/C: 2.97%
[71]
  viability, T/C: 3.32%
[72]
  viability, T/C: 2.59%
